Measurements reported in patent US12486273B2 (Hoffmann-La Roche Inc., priority 2019, dated 2025).
Each block holds one compound with its values, some of them ahead of it.

Key:
[1] = target: human TLR8 (Homo sapiens (Human), UniProt Q9NR97); experiment: HEK293-Blue-hTLR-8 cells assay; type: cell-based; details: HEK293-Blue-hTLR8 cells, R848 stimulation, 20 hrs, SEAP reporter; read-out: HEK/hTLR8 IC50
[2] = target: human TLR7 (Homo sapiens (Human), UniProt Q9NYK1); experiment: HEK293-Blue-hTLR-7 cells assay; type: cell-based; details: HEK293-Blue-hTLR7 cells, R848 stimulation, 20 hrs, SEAP reporter; read-out: HEK/hTLR7 IC50
human TLR7, sequence (Q9NYK1 27-1049): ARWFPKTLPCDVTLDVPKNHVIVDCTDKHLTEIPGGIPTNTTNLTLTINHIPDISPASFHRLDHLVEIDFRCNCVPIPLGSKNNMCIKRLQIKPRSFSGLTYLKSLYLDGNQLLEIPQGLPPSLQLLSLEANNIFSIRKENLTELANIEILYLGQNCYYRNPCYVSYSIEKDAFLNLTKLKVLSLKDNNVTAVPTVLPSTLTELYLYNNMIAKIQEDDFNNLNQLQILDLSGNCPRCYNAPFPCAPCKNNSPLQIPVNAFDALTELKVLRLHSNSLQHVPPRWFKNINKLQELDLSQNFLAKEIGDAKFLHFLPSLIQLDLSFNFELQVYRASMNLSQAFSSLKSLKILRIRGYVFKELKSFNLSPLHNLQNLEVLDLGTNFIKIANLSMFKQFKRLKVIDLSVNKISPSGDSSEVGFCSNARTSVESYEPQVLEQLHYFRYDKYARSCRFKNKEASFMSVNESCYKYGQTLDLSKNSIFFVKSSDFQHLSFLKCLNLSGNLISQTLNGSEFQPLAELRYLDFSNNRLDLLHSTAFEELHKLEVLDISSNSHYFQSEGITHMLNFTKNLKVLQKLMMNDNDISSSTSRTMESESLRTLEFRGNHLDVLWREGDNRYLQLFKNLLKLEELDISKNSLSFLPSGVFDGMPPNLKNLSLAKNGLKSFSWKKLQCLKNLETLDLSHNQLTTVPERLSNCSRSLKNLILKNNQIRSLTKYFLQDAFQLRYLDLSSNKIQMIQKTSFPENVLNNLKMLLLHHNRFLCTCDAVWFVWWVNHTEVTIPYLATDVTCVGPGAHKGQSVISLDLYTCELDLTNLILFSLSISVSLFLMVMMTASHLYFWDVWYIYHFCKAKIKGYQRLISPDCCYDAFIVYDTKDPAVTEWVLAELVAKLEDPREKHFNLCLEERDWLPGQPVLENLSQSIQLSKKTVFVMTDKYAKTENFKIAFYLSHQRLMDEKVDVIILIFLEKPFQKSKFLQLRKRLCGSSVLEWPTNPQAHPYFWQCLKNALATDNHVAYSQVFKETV
Method in brief: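 HEK293-Blue cells stably expressing hTLR7 with NF-κB/AP-1-driven SEAP reporter, incubated 20 h at 37 °C with serially diluted compound (1% DMSO) plus R848 agonist (10 μL of 20 μM stock). Supernatant SEAP measured with QUANTI-Blue after 2 h at 37 °C, absorbance 620-655 nm; antagonism as reduced reporter.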

human TLR8, sequence (Q9NR97 27-1041): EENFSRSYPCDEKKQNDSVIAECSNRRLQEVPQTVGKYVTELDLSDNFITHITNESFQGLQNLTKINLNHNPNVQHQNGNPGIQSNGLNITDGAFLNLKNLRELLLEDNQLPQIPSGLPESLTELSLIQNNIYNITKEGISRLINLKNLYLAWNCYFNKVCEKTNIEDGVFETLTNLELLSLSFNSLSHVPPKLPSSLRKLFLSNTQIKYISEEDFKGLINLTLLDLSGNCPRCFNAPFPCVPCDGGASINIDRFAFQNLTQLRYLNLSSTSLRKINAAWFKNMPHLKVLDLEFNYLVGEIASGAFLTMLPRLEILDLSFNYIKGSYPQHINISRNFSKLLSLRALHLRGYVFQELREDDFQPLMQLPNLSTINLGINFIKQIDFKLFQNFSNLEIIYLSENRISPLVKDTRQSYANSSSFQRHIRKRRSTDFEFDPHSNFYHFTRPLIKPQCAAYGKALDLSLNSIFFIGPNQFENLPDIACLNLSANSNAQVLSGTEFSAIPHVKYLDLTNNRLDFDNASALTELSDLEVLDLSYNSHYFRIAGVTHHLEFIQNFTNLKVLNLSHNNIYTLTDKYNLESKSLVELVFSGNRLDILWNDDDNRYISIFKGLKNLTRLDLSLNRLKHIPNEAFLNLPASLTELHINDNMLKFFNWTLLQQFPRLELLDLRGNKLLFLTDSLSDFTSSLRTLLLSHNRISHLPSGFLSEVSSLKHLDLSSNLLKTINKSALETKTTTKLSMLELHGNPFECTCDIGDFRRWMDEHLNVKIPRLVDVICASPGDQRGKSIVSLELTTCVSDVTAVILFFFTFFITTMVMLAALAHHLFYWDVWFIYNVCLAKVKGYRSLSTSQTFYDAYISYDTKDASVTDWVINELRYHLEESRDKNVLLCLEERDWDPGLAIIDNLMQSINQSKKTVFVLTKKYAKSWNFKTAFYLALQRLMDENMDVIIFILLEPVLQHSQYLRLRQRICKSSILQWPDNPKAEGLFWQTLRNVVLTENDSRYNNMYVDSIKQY

SMILES: C[C@@H]1CN(c2ccc(C#N)c3ncccc23)C[C@@H]2C[C@@H](Nc3ccc4c(n3)CNCC4)CN21 [Example 3, 5-[(4R,7R,8aS)-4-methyl-7-(5,6,7,8-tetrahydro-1,7-naphthyridin-2-ylamino)-3,4,6,7,8,8a-hexahydro-1H-pyrrolo[1,2-a]pyrazin-2-yl]quinoline-8-carbonitrile]
IC50 [1]: 18.4 nM
IC50 [2]: 38.7 nM

SMILES: [2H]c1ccc2c(N3C[C@@H]4C[C@H](N5CCNCC5)CN4[C@H](C)C3)ccc(C#N)c2n1 [Example 15, 5-[(4R,7S,8aS)-4-methyl-7-piperazin-1-yl-3,4,6,7,8,8a-hexahydro-1H-pyrrolo[1,2-a]pyrazin-2-yl]-2-deuterio-quinoline-8-carbonitrile]
IC50 [1]: 20.3 nM
IC50 [2]: 12.9 nM

SMILES: [2H]c1ccc2c(N3C[C@@H]4C[C@H](N5CCC(N(C)C)CC5)CN4[C@H](C)C3)ccc(C#N)c2n1 [Example 20, 5-[(4R,7S,8aS)-7-[4-(dimethylamino)-1-piperidyl]-4-methyl-3,4,6,7,8,8a-hexahydro-1H-pyrrolo[1,2-a]pyrazin-2-yl]-2-deuterio-quinoline-8-carbonitrile]
IC50 [1]: 18.3 nM
IC50 [2]: 18.9 nM

Now those with a lower IC50 [1], led by results:

IC50 [1]: 13.4 nM
IC50 [2]: 16.1 nM
SMILES: C[C@@H]1CN(c2ccc(C#N)c3ncccc23)C[C@@H]2C[C@@H](Nc3ccc4c(n3)CCNC4)CN21 [Example 1, 5-[(4R,7R,8aS)-4-methyl-7-(5,6,7,8-tetrahydro-1,6-naphthyridin-2-ylamino)-3,4,6,7,8,8a-hexahydro-1H-pyrrolo[1,2-a]pyrazin-2-yl]quinoline-8-carbonitrile]

IC50 [1]: 12.5 nM
IC50 [2]: 40.5 nM
SMILES: C[C@@H]1CN(c2ccc(C#N)c3ncccc23)C[C@@H]2C[C@@H](Nc3cc4c(cn3)CCNC4)CN21 [Example 2, 5-[(4R,7R,8aS)-4-methyl-7-(5,6,7,8-tetrahydro-2,6-naphthyridin-3-ylamino)-3,4,6,7,8,8a-hexahydro-1H-pyrrolo[1,2-a]pyrazin-2-yl]quinoline-8-carbonitrile]
